Measured values from patent publication US20240025884A1 (Dong-A ST Co., Ltd., priority 2022, published 2024).

molecular target: GCN2 (Homo sapiens (Human), UniProt Q9P2K8); test: GCN2 Biochemical Assay (TR-FRET, GFP-eIF2S1 substrate phosphorylation); settings: read-out: IC50 (GCN2 Inhibitory Activity)
Outline: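 TR-FRET readout (Ex 340, Em 490/520 nm) after 2–3 h with Tb-labelled phospho-eIF2S1 antibody in stop mix, following a 70 min room-temperature kinase step. Reaction: in-house GCN2, GFP-eIF2S1, ATP, tRNA in Tris pH 7.5 (2× stocks 1.6 nM, 50 nM, 0.2 mM); compounds tested at 10 concentrations, with a phospho-substrate artifact counter-plate.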

Chain of GCN2 (Q9P2K8 whole entry): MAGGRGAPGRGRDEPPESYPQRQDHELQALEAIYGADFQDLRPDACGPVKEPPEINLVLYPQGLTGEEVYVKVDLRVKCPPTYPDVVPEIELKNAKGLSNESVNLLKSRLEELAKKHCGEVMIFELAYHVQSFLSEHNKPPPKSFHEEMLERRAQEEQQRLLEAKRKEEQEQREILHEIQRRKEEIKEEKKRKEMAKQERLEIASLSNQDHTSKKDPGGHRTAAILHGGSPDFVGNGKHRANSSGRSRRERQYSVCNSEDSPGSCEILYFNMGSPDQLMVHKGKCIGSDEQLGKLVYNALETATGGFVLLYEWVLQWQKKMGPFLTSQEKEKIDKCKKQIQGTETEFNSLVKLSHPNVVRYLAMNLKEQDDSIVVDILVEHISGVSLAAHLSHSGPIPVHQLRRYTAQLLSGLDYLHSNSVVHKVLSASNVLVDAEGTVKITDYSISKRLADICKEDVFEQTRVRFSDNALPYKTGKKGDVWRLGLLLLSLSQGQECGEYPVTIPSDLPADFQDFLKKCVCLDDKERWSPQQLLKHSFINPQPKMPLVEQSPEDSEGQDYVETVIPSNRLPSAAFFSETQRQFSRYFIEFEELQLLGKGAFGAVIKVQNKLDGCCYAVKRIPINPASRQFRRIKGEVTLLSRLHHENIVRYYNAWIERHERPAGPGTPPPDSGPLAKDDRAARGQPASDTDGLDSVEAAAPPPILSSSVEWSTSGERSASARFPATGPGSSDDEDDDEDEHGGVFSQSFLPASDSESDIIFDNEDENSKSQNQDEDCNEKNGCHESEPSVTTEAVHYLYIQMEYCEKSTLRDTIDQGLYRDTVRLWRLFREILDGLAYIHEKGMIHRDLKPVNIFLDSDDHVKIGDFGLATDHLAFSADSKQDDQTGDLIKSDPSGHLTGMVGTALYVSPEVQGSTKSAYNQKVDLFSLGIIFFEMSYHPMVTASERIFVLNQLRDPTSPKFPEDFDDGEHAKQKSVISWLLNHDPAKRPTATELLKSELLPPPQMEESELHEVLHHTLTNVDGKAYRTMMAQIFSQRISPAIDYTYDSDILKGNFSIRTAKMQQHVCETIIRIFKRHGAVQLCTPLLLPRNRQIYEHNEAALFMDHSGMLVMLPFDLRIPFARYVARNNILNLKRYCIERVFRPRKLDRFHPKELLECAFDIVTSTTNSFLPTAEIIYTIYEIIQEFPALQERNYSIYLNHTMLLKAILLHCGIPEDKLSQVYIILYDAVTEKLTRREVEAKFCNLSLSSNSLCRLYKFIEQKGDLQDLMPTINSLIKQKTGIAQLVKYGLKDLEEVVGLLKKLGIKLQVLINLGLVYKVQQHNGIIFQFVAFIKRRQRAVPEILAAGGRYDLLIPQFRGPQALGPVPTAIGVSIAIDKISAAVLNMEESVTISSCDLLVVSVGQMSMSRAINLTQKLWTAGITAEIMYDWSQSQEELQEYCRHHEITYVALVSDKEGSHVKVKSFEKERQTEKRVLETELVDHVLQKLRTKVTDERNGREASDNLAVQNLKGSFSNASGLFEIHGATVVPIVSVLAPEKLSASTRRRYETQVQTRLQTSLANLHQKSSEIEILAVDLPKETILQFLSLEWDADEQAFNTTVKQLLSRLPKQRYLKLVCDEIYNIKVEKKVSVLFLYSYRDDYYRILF

| Compound | IC50 [µM] |
| --- | --- |
| Cc1cnc(Nc2cc(C)n(C)n2)nc1-c1c[nH]c2c(NC(=O)CN3CC[C@H](Oc4ccnc(NC5CCC5)n4)C3)cccc12 [Example 208, (S)-2-(3-((2-(cyclobutylamino)pyrimidin-4-yl)oxy)pyrrolidin-1-yl)-N-(3-(2-((1,5-dimethyl-1H-pyrazol-3-yl)amino)-5-methylpyrimidin-4-yl)-1H-indol-7-yl)acetamide] | < 0.01 |
| Cc1cnc(Nc2cc(C)n(C)n2)nc1-c1c[nH]c2c(NC(=O)CN3CC[C@H](Oc4ccnc(NC5CCCC5)n4)C3)cccc12 [Example 209, (S)-2-(3-((2-(cyclopentylamino)pyrimidin-4-yl)oxy)pyrrolidin-1-yl)-N-(3-(2-((1,5-dimethyl-1H-pyrazol-3-yl)amino)-5-methylpyrimidin-4-yl)-1H-indol-7-yl)acetamide] | 0.01 to 0.1 |
| Cc1cnc(Nc2cc(C)n(C)n2)nc1-c1c[nH]c2c(NC(=O)CN3CC[C@H](Oc4ccnc(NC5CCCCC5)n4)C3)cccc12 [Example 210, (S)-2-(3-((2-(cyclohexylamino)pyrimidin-4-yl)oxy)pyrrolidin-1-yl)-N-(3-(2-((1,5-dimethyl-1H-pyrazol-3-yl)amino)-5-methylpyrimidin-4-yl)-1H-indol-7-yl)acetamide] | 0.01 to 0.1 |
| Cc1cnc(Nc2cc(C)n(C)n2)nc1-c1c[nH]c2c(NC(=O)CN3CC[C@H](Oc4ccnc(NC(C)C)n4)C3)cccc12 [Example 211, (S)-N-(3-(2-((1,5-dimethyl-1H-pyrazol-3-yl)amino)-5-methylpyrimidin-4-yl)-1H-indol-7-yl)-2-(3-((2-(isopropylamino)pyrimidin-4-yl)oxy)pyrrolidin-1-yl)acetamide] | < 0.01 |
| CCC(C)Nc1nccc(O[C@H]2CCN(CC(=O)Nc3cccc4c(-c5nc(Nc6cc(C)n(C)n6)ncc5C)c[nH]c34)C2)n1 (stereo partly drawn) [Example 212, 2-((3S)-3-((2-(sec-butylamino)pyrimidin-4-yl)oxy)pyrrolidin-1-yl)-N-(3-(2-((1,5-dimethyl-1H-pyrazol-3-yl)amino)-5-methylpyrimidin-4-yl)-1H-indol-7-yl)acetamide] | < 0.01 |
| Cc1cnc(Nc2cc(C)n(C)n2)nc1-c1c[nH]c2c(NC(=O)CN3CC[C@H](Oc4ccnc(NCC5CC5)n4)C3)cccc12 [Example 213, (S)-2-(3-((2-((cyclopropylmethyl)amino)pyrimidin-4-yl)oxy)pyrrolidin-1-yl)-N-(3-(2-((1,5-dimethyl-1H-pyrazol-3-yl)amino)-5-methylpyrimidin-4-yl)-1H-indol-7-yl)acetamide] | < 0.01 |

Further lines, results first:

| IC50 [µM] | Compound |
| --- | --- |
| < 0.01 | Cc1cnc(Nc2cc(C)n(C)n2)nc1-c1c[nH]c2c(NC(=O)CN3CC[C@H](Oc4ccnc(NCc5ccccc5)n4)C3)cccc12 [Example 214, (S)-2-(3-((2-(benzylamino)pyrimidin-4-yl)oxy)pyrrolidin-1-yl)-N-(3-(2-((1,5-dimethyl-1H-pyrazol-3-yl)amino)-5-methylpyrimidin-4-yl)-1H-indol-7-yl)acetamide] |
| < 0.01 | Cc1cnc(Nc2cc(C)n(C)n2)nc1-c1c[nH]c2c(NC(=O)CN3CC[C@H](Oc4ccnc(NCCO)n4)C3)cccc12 [Example 215, (S)-N-(3-(2-((1,5-dimethyl-1H-pyrazol-3-yl)amino)-5-methylpyrimidin-4-yl)-1H-indol-7-yl)-2-(3-((2-((2-hydroxyethyl)amino)pyrimidin-4-yl)oxy)pyrrolidin-1-yl)acetamide] |
| < 0.01 | COCCNc1nccc(O[C@H]2CCN(CC(=O)Nc3cccc4c(-c5nc(Nc6cc(C)n(C)n6)ncc5C)c[nH]c34)C2)n1 [Example 216, (S)-N-(3-(2-((1,5-dimethyl-1H-pyrazol-3-yl)amino)-5-methylpyrimidin-4-yl)-1H-indol-7-yl)-2-(3-((2-((2-methoxyethyl)amino)pyrimidin-4-yl)oxy)pyrrolidin-1-yl)acetamide] |
